Source: article PMC5947527 (Chemical Science, 2015)
Entries after “also recorded” stand apart in the source; their conditions may differ. Non-standard residues stand in square brackets, D forms with d. Residues, ends and D or L forms follow the SMILES beside them. *: point of attachment. NBD = O=[N+]([O-])c1ccc(*)c2nonc12; Nle = CCCC[C@H](N)C(=O)O; Ahx = NCCCCCC(=O)O

How the values were obtained:
[1] = tested on: isolated human neutrophils; experiment: Co-culture of bacteria and isolated human neutrophils, confocal specificity; format: cell-based
Description: Neutrophil Isolation: Neutrophils for in vitro experiments were isolated from peripheral venous blood of healthy human volunteers (Ethical approval was obtained from the Lothian Research Ethics Committee). Blood was anticoagulated with sodium citrate (0.38% final concentration) and polymorphonuclear leukocytes were isolated via dextran sedimentation followed by centrifugation through discontinuous plasma-Percoll gradients, as previously described. S4 […]
Confocal Analysis and Fluorescence Quantification: 8-Well Lab-Tek II Confocal Chambers (VWR, PA, USA) were coated in fibronectin (for neutrophil experiments) or poly-d-lysine (for bacteria) at 37 °C for 20 minutes, then washed in PBS prior to bacterial innoculation. For co-culture assays, neutrophils were seeded on fibronectin coated wells at 1 x 10^5 neutrophils per well for 20 minutes and non-adherent neutrophils aspirated. Bacteria were added to each chamber to a final concentration of 0.5 OD595 nm with the desired final concentration of Smartprobe. A laser-scanning confocal imaging system (LSM510; Carl Zeiss, Jena, Germany), incorporating an upright Axioskop FS2 microscope (63× objective) was used for image acquisition and processing. Exposure to 488 nm light was limited to 5% of the maximum laser power in order to minimize toxicity. ‘Green’ fluorescence (for FAM and NBD) was excited with a dedicated 488 nm line and emitted light detected with meta detector (500-530 nM).
Syto nuclear and dyes were excited with a dedicated 543 nm line, and emitted light detected with meta detector (570-610 nM). Fields of view were chosen based on the counterstain and at least three fields of view were recorded for each condition. For affinity assays, following initial imaging, the fluid was aspirated and two gentle washes with PBS were performed. The chamber was re-imaged on confocal.
Analysis was with ImageJ (version 1.46r, National Institutes of Health, USA); the Syto channel was automatically thresholded (MaxEntropy, with a set threshold 0-47) and an ROI generated from this. The

[2] = Stability in ARDS bronchoalveolar lavage fluid (MALDI-TOF MS); format: in vitro ADME, human; settings: for stability in ARDS BALF: human ARDS BALF pooled from three patients vs PBS, 5 and 30 min
Description: To determine the ability of UBI-3 to image bacteria in the continued presence of a complex inflammatory environment, bacteria were labelled with UBI-3 in the presence of broncho-alveolar lavage fluid (BALF) retrieved from ventilated ICU patients with Acute Respiratory Distress Syndrome (ARDS). ARDS BALF was utilised as ARDS is a severe life threatening pulmonary syndrome, characterized by a massive proteolytic and oxidative inflammatory environment within the distal alveolar region.[14] […] To design out susceptible amino acid cleavage points, a number of modifications were made (Table 1) and the functional consequences assessed. The chemical approaches pursued to improve resistance to degradation included replacing amino acids at the cleavage positions with non-natural amino acids such as N-methyl or D-amino acids,[15] and cyclisation of the peptide,[16] which could have the added benefit of enhancing affinity towards bacterial membrane.[17]
The Arg–Arg bonds were identified as the prominent position of degradation (Fig. 5) and Compounds UBI-4–9 (Table 1) were synthesised with a variety of substitutions around the degradation sites. The susceptible peptide bonds at P1–P2 and P7–P8 were blocked using N-MeArg (UBI-4), and to further mask these positions, a long polyethylene glycol (PEG) chain and/or a D-amino acid were positioned at the carboxylic and/or amino termini (UBI-5–7).
We hypothesized that cyclisation of the sequence would allow for greater stability and also improve bacterial affinity and therefore cyclic variants of UBI-3 were synthesized (UBI-10 and UBI-11), which were both found to be stable in BALF for 5 minutes (Fig. 7 and S3 ESI ^†). […] However, these studies also highlighted the degradation of UBI-10 at 10 minutes, guiding the temporal constraints of Smartprobe delivery and optical imaging.
Fig. 7 UBI-10 remains stable in ARDS BALF at 5 minutes. (A) Structure of UBI-10 with breakdown products in ARDS BALF. […] TEXT PRINTED IN THE PICTURE: UBI-10: Molecular Weight: 2118.41 | Fragment A: Molecular Weight: 1923.18 | Fragment B: Molecular Weight: 1980.23 DOUBTS OF THE COPYIST ABOUT THIS PICTURE: UBI-10, Molecular Weight: very small print, 2118.41 is the best reading; the digits 8 and 4 are uncertain / Fragment A, Molecular Weight: very small print, 1923.18 is the best reading; the digits 9, 3 and 8 are uncertain / Fragment B, Molecular Weight: very small print, 1980.23 is the best reading; the digits 9, 8 and 3 are uncertain […]
Supplementary Information
A Labelled-Ubiquicidin Antimicrobial Peptide for Immediate In Situ Optical Detection of Live Bacteria in Human Alveolar Lung Tissue
Ahsan R Akram, Nicolaos Avlonitis, Annamaria Lilienkampf, Ana M Perez-Lopez, Neil McDonald, Sunay V Chankeshwara, Emma Scholefield, Christopher Haslett, Mark Bradley & Kevin Dhaliwal.
Figure S1: MALDI-TOF MS spectra for a stability study of UBI-3 in PBS and in ARDS BALF […]
Figure S2. MALDI-TOF MS spectra of modified analogues UBI-4 to UBI-9 in Phosphate Buffered Saline and ARDS BALF over a period of 5 and 30min.
Figure S3: MALDI-TOF MS spectra of UBI-11 in Phosphate Buffered Saline vs ARDS BALF […]
Figure S4. Quantified fluorescence of confocal microscopy images of the compounds UBI-3, UBI-5 and UBI-10 on three bacteria and fluorescence retention following a PBS wash.
Figure S5: Fibered confocal fluorescence microscopy imaging of human lung and Calcein AM stained Methicillin sensitive S. aureus.
Experimental Details including Tables M1-4, Figure M1 and HPLC Chromatograms.
(also on this page, place not known: Electronic Supplementary Material (ESI) for Chemical Science. This journal is © The Royal Society of Chemistry 2015)
(1 picture or pasted object on this page, not shown here) […]
BALF Retrieval: Bronchoalveolar lavage was performed in the Intensive Care Unit (ICU), as previously described. S5 Pooled samples from three patients were used for stability assays. […]
Exposure to 488 nm light was limited to 5% […]

Structure (SMILES) | labelling of neutrophils at 10 μM ([1]; co-culture of isolated human neutrophils and methicillin sensitive S. aureus, 10 μM) | labelling of neutrophils at 50 μM ([1]; co-culture of isolated human neutrophils and methicillin sensitive S. aureus, 50 μM) | stability in ARDS BALF ([2]; MALDI-TOF MS) | time stable in ARDS BALF ([2]; human ARDS BALF, MALDI-TOF MS) [min] | time at which degradation products form in ARDS BALF ([2]; human ARDS BALF, MALDI-TOF time course) [min] | labelling of neutrophils vs bacteria ([1]; bacteria with isolated human neutrophils, confocal) | time of degradation of the peptide in ARDS BALF ([2]; human ARDS BALF, MALDI-TOF MS) [min]
CCCC[C@@H]1NC(=O)[C@H](CCCNC(=N)N)NC(=O)[C@H](CCCNC(=N)N)NC(=O)[C@H](CCCCN)NC(=O)[C@H](C)NC(=O)[C@H](CCCNC(=N)N)NC(=O)CNC(=O)[C@H]([C@@H](C)O)NC(=O)[C@@H](NC(=O)CCCCCNc2ccc([N+](=O)[O-])c3nonc23)CCCCNC(=O)CNC(=O)[C@H](CCCNC(=N)N)NC(=O)[C@H](CCCNC(=N)N)NC(=O)[C@H](CC(N)=O)NC(=O)[C@H](Cc2ccc(O)cc2)NC(=O)[C@H](CCC(N)=O)NC1=O [UBI-10] | retained bacterial specificity over neutrophils; also recorded: no labelling of neutrophils | some neutrophil labelling was observed; also recorded: occasional neutrophil labelling was observed | Improved stability in ARDS BALF | 5 | 10 |  | 
CCCC[C@H](NC(=O)[C@H](CCCNC(=N)N)NC(=O)[C@H](CCCNC(=N)N)NC(=O)[C@H](CCCCN)NC(=O)[C@H](C)NC(=O)[C@H](CCCNC(=N)N)NC(=O)CNC(=O)[C@@H](NC(=O)CCCCCNc1ccc([N+](=O)[O-])c2nonc12)[C@@H](C)O)C(=O)N[C@@H](CCC(N)=O)C(=O)N[C@@H](Cc1ccc(O)cc1)C(=O)N[C@@H](CC(N)=O)C(=O)N[C@@H](CCCNC(=N)N)C(=O)N[C@@H](CCCNC(=N)N)C(N)=O [UBI-3] ({NBD-Ahx}-TGRAKRR[Nle]QYNRR-NH2) |  |  | Unstable in ARDS BALF |  |  | labels bacteria but not isolated human neutrophils | < 5
